Test results taken from patent publication US9850247B2 (Almac Discovery Limited, priority 2013, dated 2017).

Experiments:
Wee-1 kinase = molecular target: T1, Wee-1 kinase (Homo sapiens, UniProt P30291); experiment: Measurement of Wee-1 kinase activity (ADP-Glo luminescent kit); assay type: biochemical
T1 construct: purchased Invitrogen PV3817
Procedure, shortened: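 Activated Wee-1 was pre-incubated 30 min at RT with compound in 40 mM Tris-HCl, 20 mM MgCl2, 0.1 mg/mL BSA and 2 mM DTT. The reaction was started with an aliquot of 2.0 μg/mL poly(Lys,Tyr 4:1) plus 30 μM ATP and run 1 h at RT. ADP-Glo luminescence gave IC50 by non-linear fit.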

[1] = CLint estimates using human liver microsomes (Method 4); assay type: in vitro ADME; settings: pH 7.4, 1 μM compound, read-out: Mics - CLint (HLM CLint)
Experimental: Method 4: Determination of CLint Estimates Using Human liver microsomes Test compounds (final concentration=1 μM; final DMSO concentration=0.1%) were incubated in 0.1 M phosphate buffer pH 7.4 with human liver microsomes (0.5 mg of protein/mL) at 37° C. Reactions were started by addition of NADPH in 0.1 M phosphate buffer pH 7.4 (final concentration 1 mM). 40 μL aliquots were removed at 2, 5, 10, 15, 20, 30, 40 and 50 min. Reactions were quenched in 80 μL of ice-cold methanol. Samples were subsequently frozen overnight then centrifuged at 3500 rpm for 20 min at 4° C. The supernatants were removed and transferred into analytical plates and analysed by LC/MS/MS. LC/MS/MS Method: All samples were analysed on a Waters Acquity I-Class coupled to a Waters Xevo TQD mass spectrometer. A Waters BEH C18 2.1×50 mm 1.7 μm column was used and mobile phases were water and methanol containing 0.1% formic acid as modifier. Analysis was by multiple reaction monitoring and conditions were optimised for each test compound. Data Analyses: From a plot of 1n peak area against time, the gradient of the line is determined. Subsequently, half-life and intrinsic clearance are calculated using the following equations. [formula] [formula] [formula] where V=Incubation volume (μL)/number of cells Method 5: Determination of Kinetic Solubility (in PBS Buffer)

T1 sequence (P30291 whole entry): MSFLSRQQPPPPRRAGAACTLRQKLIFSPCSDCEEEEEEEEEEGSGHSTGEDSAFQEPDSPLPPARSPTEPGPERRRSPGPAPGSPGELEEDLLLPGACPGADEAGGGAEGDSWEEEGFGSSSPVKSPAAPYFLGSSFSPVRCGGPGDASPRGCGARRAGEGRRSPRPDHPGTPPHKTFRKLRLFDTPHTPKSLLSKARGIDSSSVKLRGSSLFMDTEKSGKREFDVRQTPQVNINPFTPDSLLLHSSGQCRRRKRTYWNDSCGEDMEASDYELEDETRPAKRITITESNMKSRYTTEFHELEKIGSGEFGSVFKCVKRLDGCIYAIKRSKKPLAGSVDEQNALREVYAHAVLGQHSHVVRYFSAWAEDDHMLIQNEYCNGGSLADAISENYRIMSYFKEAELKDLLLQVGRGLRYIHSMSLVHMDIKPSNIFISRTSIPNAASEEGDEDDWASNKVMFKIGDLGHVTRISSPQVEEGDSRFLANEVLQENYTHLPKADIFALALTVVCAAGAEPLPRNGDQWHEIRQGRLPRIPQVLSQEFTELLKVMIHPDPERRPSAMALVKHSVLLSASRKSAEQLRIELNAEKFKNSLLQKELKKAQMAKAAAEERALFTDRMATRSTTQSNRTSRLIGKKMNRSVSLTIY

SMILES | IC50 (Wee-1 kinase) [nM] | microsomal CLint at 1 μM [1] [µL/min/mg]
CNCc1cc(Nc2ncc3c(n2)N(C)CN(c2c(Cl)cccc2Cl)C3=O)ccc1Br [Example 157, 7-((4-bromo-3-((methylamino)methyl)phenyl)amino)-3-(2,6-dichlorophenyl)-1-methyl-2,3-dihydropyrimido[4,5-d]pyrimidin-4(1H)-one] | 10 to 100 | ≤ 15
CN1CN(c2c(Cl)cccc2Cl)C(=O)c2cnc(Nc3ccc(N4CC5COCC(C4)N5)cc3)nc21 [Example 64, 7-((4-(3-oxa-7,9-diazabicyclo[3.3.1]nonan-7-yl)phenyl)amino)-3-(2,6-dichlorophenyl)-1-methyl-2,3-dihydropyrimido[4,5-d]pyrimidin-4(1H)-one] | 10 to 100 | ≤ 15
CNCc1cc(Nc2ncc3c(n2)N(C)CN(c2c(Cl)cccc2Cl)C3=O)ccc1N1CCCCC1 [Example 136, 3-(2,6-dichlorophenyl)-1-methyl-7-((3-((methylamino)methyl)-4-(piperidin-1-yl)phenyl)amino)-2,3-dihydropyrimido[4,5-d]pyrimidin-4(1H)-one] | 10 to 100 | ≥ 50
CN1CCC(Nc2cccc(Nc3ncc4c(n3)N(C)CN(c3c(Cl)cccc3Cl)C4=O)c2)CC1 [Example 91, 3-(2,6-dichlorophenyl)-1-methyl-7-((3-((1-methylpiperidin-4-yl)amino)phenyl)amino)-2,3-dihydropyrimido[4,5-d]pyrimidin-4(1H)-one] | 10 to 100 | ≤ 15
CN1CN(c2c(Cl)cccc2Cl)C(=O)c2cnc(Nc3ccc(N4CCN5CCOC[C@@H]5C4)c(CO)c3)nc21 [Example 133, (S)-3-(2,6-dichlorophenyl)-7-((4-(hexahydropyrazino[2,1-c][1,4]oxazin-8(1H)-yl)-3-(hydroxymethyl)phenyl)amino)-1-methyl-2,3-dihydropyrimido[4,5-d]pyrimidin-4(1H)-one] | 10 to 100 | 15 to 50
CN1CN(c2c(Cl)cccc2Cl)C(=O)c2cnc(Nc3ccc(C4(N)CCC4)cc3)nc21 [Example 37, 7-((4-(1-aminocyclobutyl)phenyl)amino)-3-(2,6-dichlorophenyl)-1-methyl-2,3-dihydropyrimido[4,5-d]pyrimidin-4(1H)-one] | 10 to 100 | 15 to 50
Cc1cc(Nc2ncc3c(n2)N(C)CN(c2c(Cl)cccc2Cl)C3=O)ccc1N1C[C@H]2C[C@@H]1CN2C [Example 121, 3-(2,6-dichlorophenyl)-1-methyl-7-((3-methyl-4-((1R,4R)-5-methyl-2,5-diazabicyclo[2.2.1]heptan-2-yl)phenyl)amino)-2,3-dihydropyrimido[4,5-d]pyrimidin-4(1H)-one] | 10 to 100 | 15 to 50

Continued, values first:

IC50 (Wee-1 kinase) [nM] | microsomal CLint at 1 μM [1] [µL/min/mg] | SMILES
10 to 100 | ≤ 15 | CN1CN(c2c(Cl)cccc2Cl)C(=O)c2cnc(Nc3ccc(N4C[C@@H]5C[C@H]4CN5)cc3)nc21 [Example 39, 7-((4-((1S,4S)-2,5-diazabicyclo[2.2.1]heptan-2-yl)phenyl)amino)-3-(2,6-dichlorophenyl)-1-methyl-2,3-dihydropyrimido[4,5-d]pyrimidin-4(1H)-one]
≤ 10 | ≤ 15 | C[C@@H]1CN(c2ccc(Nc3ncc4c(n3)N(c3ccn(C)n3)CN(c3c(Cl)cccc3Cl)C4=O)cc2)CCN1 [Example 58, (R)-3-(2,6-dichlorophenyl)-1-(1-methyl-1H-pyrazol-3-yl)-7-((4-(3-methylpiperazin-1-yl)phenyl)amino)-2,3-dihydropyrimido[4,5-d]pyrimidin-4(1H)-one]
≥ 100 | 15 to 50 | COCCN1CCN(c2ccc(Nc3ncc4c(n3)N(C)CN(c3c(Cl)cccc3Cl)C4=O)cc2)CC1 [Example 120, 3-(2,6-dichlorophenyl)-7-((4-(4-(2-methoxyethyl)piperazin-1-yl)phenyl)amino)-1-methyl-2,3-dihydropyrimido[4,5-d]pyrimidin-4(1H)-one]
